{
  "source": "ChEMBL document CHEMBL3885881",
  "about": "“DrugMatrix”",
  "organism": "Rattus norvegicus",
  "assay": "DrugMatrix - Regimen: Daily Repeat",
  "format": "toxicity, organism-based, Sprague-Dawley",
  "parameters": "regimen Daily Repeat, gender Male, age 6-8 weeks",
  "conditions": "in vivo, po, route oral GAVAGE, vehicle .5 % CMC; for ABSOLUTE BASOPHIL / BASOPHIL / EOSINOPHIL / ERYTHROCYTE COUNT / HEMATOCRIT / HEMOGLOBIN / LEUKOCYTE COUNT / LYMPHOCYTE / MEAN CORPUSCULAR HEMOGLOBIN / MEAN CORPUSCULAR HEMOGLOBIN CONCENTRATION / MEAN CORPUSCULAR VOLUME / MONOCYTE / NEUTROPHIL / PLATELET COUNT: tissue Blood; for ALANINE AMINOTRANSFERASE / ALKALINE PHOSPHATASE / ASPARTATE AMINOTRANSFERASE / BLOOD UREA NITROGEN / CHLORIDE / CHOLESTEROL / CREATINE PHOSPHOKINASE / CREATININE / GLUCOSE / PHOSPHORUS / POTASSIUM / SODIUM / TOTAL BILIRUBIN / TOTAL PROTEIN: tissue Plasma",
  "key": {"[1]": {"conditions": "0 mg/kg, 72 h, dose level Control, time 3 day"}, "[2]": {"conditions": "0 mg/kg, 120 h, dose level Control, time 5 day"}, "[3]": {"conditions": "20 mg/kg, 72 h, dose level Low, time 3 day"}},
  "data": [
    {"smiles": "CC(C(=O)O)c1ccc2oc(-c3ccc(Cl)cc3)nc2c1", "note": "(stereo not drawn) [BENOXAPROFEN]", "values": [
      {"measurement": "ABSOLUTE BASOPHIL", "setting": "[1]", "value": 16.7, "unit": "cells/µL"},
      {"measurement": "BASOPHIL", "setting": "[1]", "value": 0.17, "unit": "%"},
      {"measurement": "EOSINOPHIL", "setting": "[1]", "value": 0.62, "unit": "%"},
      {"measurement": "ERYTHROCYTE COUNT", "setting": "[1]", "value": 6.55, "unit": "x10E6/uL"},
      {"measurement": "HEMATOCRIT", "setting": "[1]", "value": 42, "unit": "%"},
      {"measurement": "HEMOGLOBIN", "setting": "[1]", "value": 13.48, "unit": "G/DL"},
      {"measurement": "LEUKOCYTE COUNT", "setting": "[1]", "value": 8.79, "unit": "x10E3/uL"},
      {"measurement": "LYMPHOCYTE", "setting": "[1]", "value": 76.98, "unit": "%"},
      {"measurement": "MEAN CORPUSCULAR HEMOGLOBIN", "setting": "[1]", "value": 20.57, "unit": "pg"},
      {"measurement": "MEAN CORPUSCULAR HEMOGLOBIN CONCENTRATION", "setting": "[1]", "value": 32.08, "unit": "G/DL"},
      {"measurement": "MEAN CORPUSCULAR VOLUME", "setting": "[1]", "value": 64.1, "unit": "fL"},
      {"measurement": "MONOCYTE", "setting": "[1]", "value": 2.12, "unit": "%"},
      {"measurement": "NEUTROPHIL", "setting": "[1]", "value": 19, "unit": "%"},
      {"measurement": "PLATELET COUNT", "setting": "[1]", "value": 1432.17, "unit": "x10E3/uL"},
      {"measurement": "ALANINE AMINOTRANSFERASE", "setting": "[1]", "value": 42.83, "unit": "u/L"},
      {"measurement": "ALKALINE PHOSPHATASE", "setting": "[1]", "value": 328.5, "unit": "u/L"},
      {"measurement": "ASPARTATE AMINOTRANSFERASE", "setting": "[1]", "value": 78.33, "unit": "u/L"},
      {"measurement": "BLOOD UREA NITROGEN", "setting": "[1]", "value": 14.5, "unit": "mg/dL"},
      {"measurement": "CHLORIDE", "setting": "[1]", "value": 104.5, "unit": "MEQ/L"},
      {"measurement": "CHOLESTEROL", "setting": "[1]", "value": 78.67, "unit": "mg/dL"},
      {"measurement": "CREATINE PHOSPHOKINASE", "setting": "[1]", "value": 282.33, "unit": "u/L"},
      {"measurement": "CREATININE", "setting": "[1]", "value": 0.25, "unit": "mg/dL"},
      {"measurement": "GLUCOSE", "setting": "[1]", "value": 173.67, "unit": "mg/dL"},
      {"measurement": "PHOSPHORUS", "setting": "[1]", "value": 12.83, "unit": "mg/dL"},
      {"measurement": "POTASSIUM", "setting": "[1]", "value": 6.7, "unit": "MEQ/L"},
      {"measurement": "SODIUM", "setting": "[1]", "value": 145.83, "unit": "MEQ/L"},
      {"measurement": "TOTAL BILIRUBIN", "setting": "[1]", "value": 0.4, "unit": "mg/dL"},
      {"measurement": "TOTAL PROTEIN", "setting": "[1]", "value": 5.93, "unit": "G/DL"},
      {"measurement": "ABSOLUTE BASOPHIL", "setting": "[2]", "value": 28, "unit": "cells/µL"},
      {"measurement": "BASOPHIL", "setting": "[2]", "value": 0.26, "unit": "%"},
      {"measurement": "EOSINOPHIL", "setting": "[2]", "value": 0.44, "unit": "%"},
      {"measurement": "ERYTHROCYTE COUNT", "setting": "[2]", "value": 6.99, "unit": "x10E6/uL"},
      {"measurement": "HEMATOCRIT", "setting": "[2]", "value": 45.12, "unit": "%"},
      {"measurement": "HEMOGLOBIN", "setting": "[2]", "value": 14.26, "unit": "G/DL"},
      {"measurement": "LEUKOCYTE COUNT", "setting": "[2]", "value": 9.42, "unit": "x10E3/uL"},
      {"measurement": "LYMPHOCYTE", "setting": "[2]", "value": 79.92, "unit": "%"},
      {"measurement": "MEAN CORPUSCULAR HEMOGLOBIN", "setting": "[2]", "value": 20.44, "unit": "pg"},
      {"measurement": "MEAN CORPUSCULAR HEMOGLOBIN CONCENTRATION", "setting": "[2]", "value": 31.62, "unit": "G/DL"},
      {"measurement": "MEAN CORPUSCULAR VOLUME", "setting": "[2]", "value": 64.6, "unit": "fL"},
      {"measurement": "MONOCYTE", "setting": "[2]", "value": 2.2, "unit": "%"},
      {"measurement": "NEUTROPHIL", "setting": "[2]", "value": 16.14, "unit": "%"},
      {"measurement": "PLATELET COUNT", "setting": "[2]", "value": 1062.2, "unit": "x10E3/uL"},
      {"measurement": "ALANINE AMINOTRANSFERASE", "setting": "[2]", "value": 44, "unit": "u/L"},
      {"measurement": "ALKALINE PHOSPHATASE", "setting": "[2]", "value": 342.6, "unit": "u/L"},
      {"measurement": "ASPARTATE AMINOTRANSFERASE", "setting": "[2]", "value": 74.17, "unit": "u/L"},
      {"measurement": "BLOOD UREA NITROGEN", "setting": "[2]", "value": 13, "unit": "mg/dL"},
      {"measurement": "CHLORIDE", "setting": "[2]", "value": 103, "unit": "MEQ/L"},
      {"measurement": "CHOLESTEROL", "setting": "[2]", "value": 72.83, "unit": "mg/dL"},
      {"measurement": "CREATINE PHOSPHOKINASE", "setting": "[2]", "value": 184.67, "unit": "u/L"},
      {"measurement": "CREATININE", "setting": "[2]", "value": 0.47, "unit": "mg/dL"},
      {"measurement": "GLUCOSE", "setting": "[2]", "value": 168.17, "unit": "mg/dL"},
      {"measurement": "PHOSPHORUS", "setting": "[2]", "value": 12.27, "unit": "mg/dL"},
      {"measurement": "POTASSIUM", "setting": "[2]", "value": 6.98, "unit": "MEQ/L"},
      {"measurement": "SODIUM", "setting": "[2]", "value": 147, "unit": "MEQ/L"},
      {"measurement": "TOTAL BILIRUBIN", "setting": "[2]", "value": 0.65, "unit": "mg/dL"},
      {"measurement": "TOTAL PROTEIN", "setting": "[2]", "value": 6.23, "unit": "G/DL"},
      {"measurement": "ABSOLUTE BASOPHIL", "setting": "[3]", "value": 20, "unit": "cells/µL"},
      {"measurement": "BASOPHIL", "setting": "[3]", "value": 0.23, "unit": "%"},
      {"measurement": "EOSINOPHIL", "setting": "[3]", "value": 0.43, "unit": "%"},
      {"measurement": "ERYTHROCYTE COUNT", "setting": "[3]", "value": 6.67, "unit": "x10E6/uL"},
      {"measurement": "HEMATOCRIT", "setting": "[3]", "value": 42.8, "unit": "%"},
      {"measurement": "HEMOGLOBIN", "setting": "[3]", "value": 13.83, "unit": "G/DL"},
      {"measurement": "LEUKOCYTE COUNT", "setting": "[3]", "value": 10.28, "unit": "x10E3/uL"},
      {"measurement": "LYMPHOCYTE", "setting": "[3]", "value": 78.07, "unit": "%"},
      {"measurement": "MEAN CORPUSCULAR HEMOGLOBIN", "setting": "[3]", "value": 20.73, "unit": "pg"},
      {"measurement": "MEAN CORPUSCULAR HEMOGLOBIN CONCENTRATION", "setting": "[3]", "value": 32.33, "unit": "G/DL"},
      {"measurement": "MEAN CORPUSCULAR VOLUME", "setting": "[3]", "value": 64.2, "unit": "fL"},
      {"measurement": "MONOCYTE", "setting": "[3]", "value": 2.7, "unit": "%"},
      {"measurement": "NEUTROPHIL", "setting": "[3]", "value": 16.57, "unit": "%"},
      {"measurement": "PLATELET COUNT", "setting": "[3]", "value": 1248, "unit": "x10E3/uL"},
      {"measurement": "ALANINE AMINOTRANSFERASE", "setting": "[3]", "value": 44.67, "unit": "u/L"},
      {"measurement": "ALKALINE PHOSPHATASE", "setting": "[3]", "value": 316.67, "unit": "u/L"},
      {"measurement": "ASPARTATE AMINOTRANSFERASE", "setting": "[3]", "value": 75.67, "unit": "u/L"},
      {"measurement": "BLOOD UREA NITROGEN", "setting": "[3]", "value": 13.33, "unit": "mg/dL"},
      {"measurement": "CHLORIDE", "setting": "[3]", "value": 104.33, "unit": "MEQ/L"},
      {"measurement": "CHOLESTEROL", "setting": "[3]", "value": 64.33, "unit": "mg/dL"},
      {"measurement": "CREATINE PHOSPHOKINASE", "setting": "[3]", "value": 179, "unit": "u/L"},
      {"measurement": "CREATININE", "setting": "[3]", "value": 0.33, "unit": "mg/dL"},
      {"measurement": "GLUCOSE", "setting": "[3]", "value": 176.67, "unit": "mg/dL"},
      {"measurement": "PHOSPHORUS", "setting": "[3]", "value": 12.2, "unit": "mg/dL"},
      {"measurement": "POTASSIUM", "setting": "[3]", "value": 6.37, "unit": "MEQ/L"},
      {"measurement": "SODIUM", "setting": "[3]", "value": 146.33, "unit": "MEQ/L"},
      {"measurement": "TOTAL BILIRUBIN", "setting": "[3]", "value": 0.37, "unit": "mg/dL"}
    ]}
  ]
}
